Experimental data: the CheMixHub drug solubility set

Assay: xn = mol fraction of the nth substance listed, in the solute-free solvent

Cc1ncc(C[n+]2csc(CCO)c2C)c(N)n1.O=[N+]([O-])[O-] + O + CO
solubility (g/100 g solution)
Settings	x2 = 0.1	x2 = 0.2	x2 = 0.3	x2 = 0.4	x2 = 0.5	x2 = 0.6	x2 = 0.7	x2 = 0.8	x2 = 0.9
278.15 K	0.197	0.323	0.483	0.678	0.884	1.03	1.17	1.18	1.2
283.15 K	0.221	0.371	0.566	0.801	1.05	1.24	1.41	1.43	1.44
288.15 K	0.273	0.429	0.66	0.918	1.24	1.47	1.67	1.68	1.7
293.15 K	0.35	0.52	0.79	1.08	1.47	1.77	2.02	2.04	2.08
298.15 K	0.422	0.636	0.951	1.34	1.77	2.19	2.5	2.54	2.54
303.15 K	0.518	0.786	1.17	1.64	2.18	2.68	3.06	3.14	3.1
308.15 K	0.657	0.983	1.46	1.96	2.64	3.23	3.75	3.85	3.77
313.15 K	0.812	1.24	1.81	2.52	3.25	3.94	4.6	4.72	4.55

CN1CCN(C2=Nc3cc(Cl)ccc3Nc3ccccc32)CC1 + CC(C)O + O
solubility (g/100 g solution)
Settings	x2 = 0.03225	x2 = 0.06974	x2 = 0.1139	x2 = 0.1666	x2 = 0.2307	x2 = 0.3103	x2 = 0.4117	x2 = 0.5454	x2 = 0.7297
278.15 K	0.00624	0.0228	0.0624	0.135	0.239	0.393	0.559	0.783	0.957
283.15 K	0.00829	0.029	0.0775	0.164	0.288	0.463	0.667	0.914	1.13
288.15 K	0.0108	0.0371	0.096	0.199	0.35	0.567	0.781	1.08	1.32
293.15 K	0.014	0.0473	0.117	0.237	0.417	0.659	0.933	1.27	1.54
298.15 K	0.0182	0.06	0.144	0.283	0.493	0.781	1.09	1.47	1.78
303.15 K	0.0233	0.0733	0.171	0.336	0.578	0.917	1.25	1.72	2.07
308.15 K	0.0298	0.0919	0.207	0.399	0.675	1.06	1.47	1.96	2.37
313.15 K	0.0368	0.113	0.249	0.472	0.803	1.22	1.69	2.24	2.68
318.15 K	0.0461	0.137	0.295	0.552	0.923	1.42	1.95	2.58	3.06
323.15 K	0.0576	0.166	0.344	0.642	1.07	1.63	2.21	2.92	3.45
328.15 K	0.071	0.203	0.407	0.739	1.23	1.85	2.53	3.33	3.91

COC(=O)C(C)(C)N=NC(C)(C)C(=O)OC + CO + O
Settings	solubility (g/100 g solution)
252.55 K, x2 = 0.692	1.72
252.85 K, x2 = 0.914	5.48
252.95 K, x2 = 0.628	1.36
253.15 K, x2 = 0.835	4.25
253.35 K, x2 = 0.511	0.455
253.45 K, x2 = 0.578	0.701
254.15 K, x2 = 0.761	2.82
254.75 K, x2 = 0.692	2.04
255.35 K, x2 = 0.628	1.61
255.55 K, x2 = 0.914	7.08
255.95 K, x2 = 0.578	0.875
255.95 K, x2 = 0.835	5.53
256.55 K, x2 = 0.511	0.546
256.65 K, x2 = 0.761	3.73
257.35 K, x2 = 0.692	3.07
257.95 K, x2 = 0.628	2.02
258.55 K, x2 = 0.578	1.31
259.05 K, x2 = 0.511	0.817
259.85 K, x2 = 0.914	9.9
260.15 K, x2 = 0.835	7.93
260.55 K, x2 = 0.761	5.93
261.05 K, x2 = 0.692	4.39
261.65 K, x2 = 0.628	2.76
262.15 K, x2 = 0.578	2.5
262.75 K, x2 = 0.511	1.35
263.35 K, x2 = 0.914	12.7
263.75 K, x2 = 0.835	9.97
263.95 K, x2 = 0.761	6.93
264.35 K, x2 = 0.692	5.15
264.85 K, x2 = 0.628	4.05
265.25 K, x2 = 0.578	3.25
265.75 K, x2 = 0.511	2.24
265.95 K, x2 = 0.914	14.4
266.15 K, x2 = 0.835	11.5
266.35 K, x2 = 0.761	8.33
267.95 K, x2 = 0.511	3.2
268.05 K, x2 = 0.628	5.71
268.05 K, x2 = 0.692	7.96
268.05 K, x2 = 0.761	9.69
268.05 K, x2 = 0.835	12.8
268.05 K, x2 = 0.914	16.6
268.25 K, x2 = 0.578	5.05
273.25 K, x2 = 0.835	20.2
273.35 K, x2 = 0.511	5.31
273.35 K, x2 = 0.578	7.79
273.35 K, x2 = 0.628	9.15
273.35 K, x2 = 0.914	26.6
273.45 K, x2 = 0.692	12.2
273.55 K, x2 = 0.761	17.3
275.55 K, x2 = 0.914	32
275.65 K, x2 = 0.511	6.38
275.65 K, x2 = 0.578	8.78
275.65 K, x2 = 0.835	25.5
275.75 K, x2 = 0.692	16.8
275.75 K, x2 = 0.761	20.5
275.85 K, x2 = 0.628	12.8
278.15 K, x2 = 0.835	32.7
278.15 K, x2 = 0.914	38.9
278.25 K, x2 = 0.761	27.3
278.35 K, x2 = 0.511	7.35
278.35 K, x2 = 0.578	10.2
278.35 K, x2 = 0.628	16
278.35 K, x2 = 0.692	21.6
280.65 K, x2 = 0.914	47.1
280.75 K, x2 = 0.692	27.6
280.75 K, x2 = 0.761	33.4
280.75 K, x2 = 0.835	39.1
280.85 K, x2 = 0.628	20.5
280.95 K, x2 = 0.578	15.1
281.05 K, x2 = 0.511	9.61
283.05 K, x2 = 0.578	21
283.05 K, x2 = 0.835	51.4
283.05 K, x2 = 0.914	55.7
283.15 K, x2 = 0.692	36.3
283.15 K, x2 = 0.761	44.2
283.45 K, x2 = 0.511	12.7
283.45 K, x2 = 0.628	28.1
285.65 K, x2 = 0.835	62.4
285.65 K, x2 = 0.914	66.9
285.75 K, x2 = 0.578	29.5
285.75 K, x2 = 0.628	39
285.75 K, x2 = 0.692	48.6
285.75 K, x2 = 0.761	56.4
285.85 K, x2 = 0.511	19.1
288.15 K, x2 = 0.578	42.6
288.15 K, x2 = 0.628	55.9
288.25 K, x2 = 0.761	71.5
288.25 K, x2 = 0.835	75.3
288.25 K, x2 = 0.914	78.2
288.35 K, x2 = 0.692	65.6
290.65 K, x2 = 0.628	77.7
290.65 K, x2 = 0.914	86.1
290.75 K, x2 = 0.692	81.5
290.75 K, x2 = 0.761	83.9
290.75 K, x2 = 0.835	85.1
293.15 K, x2 = 0.761	91.5
293.15 K, x2 = 0.835	91.5
293.15 K, x2 = 0.914	91.9
293.25 K, x2 = 0.692	91.2
293.35 K, x2 = 0.628	91.1
